Key:
Assay in all cases: SelectScreen, TR FRET
Conditions in all cases: compound 5.0 µM
[1] = biological target: EPHB1 (human) (UniProt P54762)
[2] = biological target: RPS6KA2 KD1 KD2 (human) (UniProt Q15349)
[3] = biological target: CAMK2A (human) (UniProt Q9UQM7)
[4] = biological target: AURKA (human) (UniProt O14965)
[5] = biological target: EPHA5 (human) (UniProt P54756)
[6] = biological target: ALK (human) (UniProt Q9UM73)
[7] = biological target: ROCK2 (human) (UniProt O75116)
[8] = biological target: MAPK14 (human) (UniProt Q16539)
[9] = biological target: FES (human) (UniProt P07332)
[10] = biological target: FLT1 (human) (UniProt P17948)
[11] = biological target: GRK6 (human) (UniProt P43250)
Sequence of GRK6 (human) (P43250 whole entry, looked up): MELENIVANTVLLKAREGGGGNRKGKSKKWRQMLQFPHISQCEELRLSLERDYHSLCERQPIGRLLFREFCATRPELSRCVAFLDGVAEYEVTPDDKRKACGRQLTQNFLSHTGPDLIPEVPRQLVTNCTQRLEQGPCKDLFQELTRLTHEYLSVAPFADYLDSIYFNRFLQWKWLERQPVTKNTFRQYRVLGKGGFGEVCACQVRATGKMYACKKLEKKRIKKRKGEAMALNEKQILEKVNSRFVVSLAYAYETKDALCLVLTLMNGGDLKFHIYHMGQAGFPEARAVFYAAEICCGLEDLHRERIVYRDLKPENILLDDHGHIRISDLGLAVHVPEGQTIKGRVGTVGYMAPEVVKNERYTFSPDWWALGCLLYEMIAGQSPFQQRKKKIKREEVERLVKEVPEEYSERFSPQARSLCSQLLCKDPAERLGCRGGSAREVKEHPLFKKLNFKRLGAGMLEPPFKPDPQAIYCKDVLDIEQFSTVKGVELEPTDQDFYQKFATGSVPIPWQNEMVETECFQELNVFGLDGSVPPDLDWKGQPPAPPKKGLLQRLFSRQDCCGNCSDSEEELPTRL

[12] = biological target: PDGFRA (human) (UniProt P16234)
[13] = biological target: EPHB2 (human) (UniProt P29323)
[14] = biological target: INSR (human) (UniProt P06213)
Sequence of INSR (human) (P06213 whole entry, looked up): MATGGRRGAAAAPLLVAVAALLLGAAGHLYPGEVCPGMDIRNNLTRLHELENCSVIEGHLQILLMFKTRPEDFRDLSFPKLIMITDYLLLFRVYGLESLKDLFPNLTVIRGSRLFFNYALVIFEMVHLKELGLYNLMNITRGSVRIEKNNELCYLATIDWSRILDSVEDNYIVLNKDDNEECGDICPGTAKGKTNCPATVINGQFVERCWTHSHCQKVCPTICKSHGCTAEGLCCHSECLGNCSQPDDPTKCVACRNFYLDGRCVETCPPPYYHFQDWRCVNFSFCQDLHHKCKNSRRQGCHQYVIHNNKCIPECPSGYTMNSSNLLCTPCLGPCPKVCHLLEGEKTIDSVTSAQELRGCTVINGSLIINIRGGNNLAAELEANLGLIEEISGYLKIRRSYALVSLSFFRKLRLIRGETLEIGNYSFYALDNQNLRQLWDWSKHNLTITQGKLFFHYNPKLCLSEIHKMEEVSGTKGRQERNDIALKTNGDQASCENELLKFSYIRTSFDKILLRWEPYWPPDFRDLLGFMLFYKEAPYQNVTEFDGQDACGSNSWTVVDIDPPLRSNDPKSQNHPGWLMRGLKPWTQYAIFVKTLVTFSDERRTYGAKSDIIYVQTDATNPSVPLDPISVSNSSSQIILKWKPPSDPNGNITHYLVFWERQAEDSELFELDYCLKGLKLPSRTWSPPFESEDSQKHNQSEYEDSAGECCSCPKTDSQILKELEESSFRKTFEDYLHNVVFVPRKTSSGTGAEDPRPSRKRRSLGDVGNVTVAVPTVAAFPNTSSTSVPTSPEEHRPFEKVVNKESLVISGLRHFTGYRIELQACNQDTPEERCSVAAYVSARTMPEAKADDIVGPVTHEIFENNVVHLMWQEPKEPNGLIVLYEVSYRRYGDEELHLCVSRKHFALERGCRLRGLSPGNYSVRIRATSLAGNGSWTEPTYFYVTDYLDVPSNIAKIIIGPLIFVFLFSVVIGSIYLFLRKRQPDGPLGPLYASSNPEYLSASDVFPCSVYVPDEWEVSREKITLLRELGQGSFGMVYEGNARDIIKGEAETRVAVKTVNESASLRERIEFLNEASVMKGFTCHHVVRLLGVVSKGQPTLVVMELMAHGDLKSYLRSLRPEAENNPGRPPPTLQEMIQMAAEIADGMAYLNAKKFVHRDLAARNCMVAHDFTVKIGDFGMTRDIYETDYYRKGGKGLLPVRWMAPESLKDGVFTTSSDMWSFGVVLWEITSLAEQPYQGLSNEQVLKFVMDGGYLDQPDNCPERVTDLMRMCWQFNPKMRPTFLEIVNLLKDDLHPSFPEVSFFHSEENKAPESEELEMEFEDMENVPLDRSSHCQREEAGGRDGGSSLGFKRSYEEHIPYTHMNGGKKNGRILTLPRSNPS

[15] = biological target: STK25 (human) (UniProt O00506)
[16] = biological target: FYN (human) (UniProt P06241)
[17] = tested on: ABL1 (human), P00519 [E255K]
[18] = biological target: PRKACA (human) (UniProt P17612)
[19] = biological target: PAK3 (human) (UniProt O75914)
[20] = biological target: CSNK1D (human) (UniProt P48730)
[21] = biological target: MAPKAPK5 (human) (UniProt Q8IW41)
[22] = biological target: HCK (human) (UniProt P08631)
Sequence of HCK (human) (P08631 whole entry, looked up): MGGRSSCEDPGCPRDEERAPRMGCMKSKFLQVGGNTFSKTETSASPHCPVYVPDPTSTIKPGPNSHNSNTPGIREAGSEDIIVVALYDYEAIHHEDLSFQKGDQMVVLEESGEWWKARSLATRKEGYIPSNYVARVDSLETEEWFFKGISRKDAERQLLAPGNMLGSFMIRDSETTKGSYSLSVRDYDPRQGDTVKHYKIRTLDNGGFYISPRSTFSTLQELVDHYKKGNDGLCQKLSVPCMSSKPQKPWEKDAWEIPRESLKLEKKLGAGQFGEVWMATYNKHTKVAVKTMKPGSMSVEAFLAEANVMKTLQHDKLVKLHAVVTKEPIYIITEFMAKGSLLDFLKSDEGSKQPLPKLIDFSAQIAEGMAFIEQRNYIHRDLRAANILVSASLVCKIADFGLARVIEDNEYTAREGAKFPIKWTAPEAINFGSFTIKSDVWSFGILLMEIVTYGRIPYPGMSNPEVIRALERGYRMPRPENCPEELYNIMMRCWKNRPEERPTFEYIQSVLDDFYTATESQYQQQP

[23] = biological target: YES1 (human) (UniProt P07947)
[24] = tested on: EGFR (human), P00533 [L861Q]
[25] = biological target: CLK1 (human) (UniProt P49759)
[26] = biological target: IGF1R (human) (UniProt P08069)
[27] = biological target: BTK (human) (UniProt Q06187)
[28] = biological target: PLK3 (human) (UniProt Q9H4B4)
[29] = biological target: NTRK3 (human) (UniProt Q16288)
[30] = biological target: NTRK2 (human) (UniProt Q16620)
[31] = biological target: PRKCE (human) (UniProt Q02156)
[32] = biological target: EPHA1 (human) (UniProt P21709)
Sequence of EPHA1 (human) (P21709 whole entry, looked up): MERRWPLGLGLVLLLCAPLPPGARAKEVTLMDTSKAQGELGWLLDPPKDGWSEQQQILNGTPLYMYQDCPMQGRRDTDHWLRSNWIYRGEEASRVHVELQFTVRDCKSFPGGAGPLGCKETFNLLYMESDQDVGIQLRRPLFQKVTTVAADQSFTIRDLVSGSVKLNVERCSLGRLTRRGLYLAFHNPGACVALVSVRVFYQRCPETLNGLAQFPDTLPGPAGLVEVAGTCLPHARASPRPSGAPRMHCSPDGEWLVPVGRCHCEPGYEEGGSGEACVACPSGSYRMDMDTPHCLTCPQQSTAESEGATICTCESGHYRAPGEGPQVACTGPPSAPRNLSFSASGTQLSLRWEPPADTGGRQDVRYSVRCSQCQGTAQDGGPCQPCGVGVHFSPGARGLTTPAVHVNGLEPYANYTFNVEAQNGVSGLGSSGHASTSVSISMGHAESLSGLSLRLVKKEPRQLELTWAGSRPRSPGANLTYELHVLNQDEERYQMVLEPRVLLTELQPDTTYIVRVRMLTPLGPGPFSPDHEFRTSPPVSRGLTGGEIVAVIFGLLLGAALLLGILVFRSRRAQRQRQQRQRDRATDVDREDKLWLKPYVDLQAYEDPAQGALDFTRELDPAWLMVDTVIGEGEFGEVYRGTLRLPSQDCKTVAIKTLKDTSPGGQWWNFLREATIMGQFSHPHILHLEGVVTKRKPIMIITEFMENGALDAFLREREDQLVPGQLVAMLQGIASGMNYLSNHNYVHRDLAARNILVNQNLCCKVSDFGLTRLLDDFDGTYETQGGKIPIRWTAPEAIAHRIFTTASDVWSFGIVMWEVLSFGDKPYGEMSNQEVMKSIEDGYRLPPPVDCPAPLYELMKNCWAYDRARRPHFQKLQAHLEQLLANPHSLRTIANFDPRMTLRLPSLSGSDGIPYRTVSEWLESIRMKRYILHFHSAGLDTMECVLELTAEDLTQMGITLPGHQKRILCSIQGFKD

[33] = biological target: MAPK11 (human) (UniProt Q15759)
[34] = biological target: AKT3 (human) (UniProt Q9Y243)
[35] = biological target: PAK4 (human) (UniProt O96013)
[36] = biological target: MAPKAPK3 (human) (UniProt Q16644)
[37] = biological target: PHKG1 (human) (UniProt Q16816)
[38] = tested on: ABL1 (human), P00519 [G250E]
[39] = biological target: PRKCD (human) (UniProt Q05655)
[40] = biological target: ERBB2 (human) (UniProt P04626)

Sequence of ALK (human) (Q9UM73 whole entry, looked up): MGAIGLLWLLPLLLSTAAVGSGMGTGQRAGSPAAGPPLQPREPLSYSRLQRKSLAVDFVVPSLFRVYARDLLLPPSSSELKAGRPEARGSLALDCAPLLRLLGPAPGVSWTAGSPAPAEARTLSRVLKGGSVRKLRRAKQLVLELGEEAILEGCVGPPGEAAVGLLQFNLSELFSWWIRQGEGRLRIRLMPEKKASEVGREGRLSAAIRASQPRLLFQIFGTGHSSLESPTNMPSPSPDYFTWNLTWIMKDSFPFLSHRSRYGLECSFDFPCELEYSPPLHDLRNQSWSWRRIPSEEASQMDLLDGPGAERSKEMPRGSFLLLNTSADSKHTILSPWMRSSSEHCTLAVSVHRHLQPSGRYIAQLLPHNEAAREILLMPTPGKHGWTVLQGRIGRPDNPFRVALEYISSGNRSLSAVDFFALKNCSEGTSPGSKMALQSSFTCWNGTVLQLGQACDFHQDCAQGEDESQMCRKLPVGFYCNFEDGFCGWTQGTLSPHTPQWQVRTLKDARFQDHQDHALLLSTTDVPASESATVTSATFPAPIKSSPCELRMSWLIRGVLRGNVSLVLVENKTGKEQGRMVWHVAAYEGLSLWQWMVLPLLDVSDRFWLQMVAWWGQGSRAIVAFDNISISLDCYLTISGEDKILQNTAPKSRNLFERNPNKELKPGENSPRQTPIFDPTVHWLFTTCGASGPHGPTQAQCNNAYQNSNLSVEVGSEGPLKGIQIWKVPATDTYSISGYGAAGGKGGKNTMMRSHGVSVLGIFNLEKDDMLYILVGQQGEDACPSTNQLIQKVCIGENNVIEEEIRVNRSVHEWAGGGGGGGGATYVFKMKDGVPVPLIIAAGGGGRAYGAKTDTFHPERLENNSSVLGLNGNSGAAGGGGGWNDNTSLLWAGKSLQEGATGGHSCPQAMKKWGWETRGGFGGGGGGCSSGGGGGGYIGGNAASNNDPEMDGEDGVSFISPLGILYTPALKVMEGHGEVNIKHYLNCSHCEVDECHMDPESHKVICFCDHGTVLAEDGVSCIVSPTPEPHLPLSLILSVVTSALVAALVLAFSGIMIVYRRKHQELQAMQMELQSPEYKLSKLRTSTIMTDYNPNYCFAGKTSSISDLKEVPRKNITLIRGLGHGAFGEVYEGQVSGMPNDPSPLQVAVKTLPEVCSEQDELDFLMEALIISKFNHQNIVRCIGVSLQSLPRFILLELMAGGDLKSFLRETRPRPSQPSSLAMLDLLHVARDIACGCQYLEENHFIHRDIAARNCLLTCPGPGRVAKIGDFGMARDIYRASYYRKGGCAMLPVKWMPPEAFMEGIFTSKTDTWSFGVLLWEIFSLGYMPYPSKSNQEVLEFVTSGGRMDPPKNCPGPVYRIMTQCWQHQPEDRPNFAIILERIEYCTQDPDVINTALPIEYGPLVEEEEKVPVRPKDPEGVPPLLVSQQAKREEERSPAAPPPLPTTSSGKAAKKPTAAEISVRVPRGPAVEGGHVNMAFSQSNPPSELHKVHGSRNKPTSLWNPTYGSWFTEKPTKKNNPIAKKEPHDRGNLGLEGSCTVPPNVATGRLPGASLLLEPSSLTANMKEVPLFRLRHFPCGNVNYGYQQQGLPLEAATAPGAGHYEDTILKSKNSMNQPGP

## Nc1cc(C(F)(F)F)c(-c2cc(N3CCOCC3)nc(N3CCOCC3)n2)cn1
[1]
  inhibition: 3%
[2]
  inhibition: 4%
[3]
  inhibition: 2%
[4]
  inhibition: 34%
[5]
  inhibition: 0%
[6]
  inhibition: 1%
[7]
  inhibition: 3%
[8]
  inhibition: 4%
[9]
  inhibition: 0%
[10]
  inhibition: 2%
[11]
  inhibition: 4%
[12]
  inhibition: 5%
[13]
  inhibition: 0%
[14]
  inhibition: 6%
[15]
  inhibition: 6%
[16]
  inhibition: 9%
[17]
  inhibition: -4%
[18]
  inhibition: 0%
[19]
  inhibition: -1%
[20]
  inhibition: 4%
[21]
  inhibition: -1%
[22]
  inhibition: 10%
[23]
  inhibition: 12%
[24]
  inhibition: 6%
[25]
  inhibition: 32%
[26]
  inhibition: 1%
[27]
  inhibition: 3%
[28]
  inhibition: 1%
[29]
  inhibition: 4%
[30]
  inhibition: 9%
[31]
  inhibition: 2%
[32]
  inhibition: -2%
[33]
  inhibition: 4%
[34]
  inhibition: 3%
[35]
  inhibition: -2%
[36]
  inhibition: 1%
[37]
  inhibition: 11%
[38]
  inhibition: -4%
[39]
  inhibition: 4%
[40]
  inhibition: -4%

Reference: the kinase profiling compilation of Christmann-Franck et al. (2016)
